The text below walks through data of US20230339863A1, “INDAZOLE DERIVATIVES AS CANNABINOID RECEPTOR PARTIAL AGONISTS” (RESEARCH TRIANGLE INSTITUTE, priority 2020, published 2023).

In one assay the target is human CB2 (Homo sapiens (Human), UniProt P34972). The experiment in a line: In vitro cannabinoid receptor activity assay (calcium mobilization, FLIPR) in CHO cells expressing human CB2 and Gαq16. Particulars: for EC50: CHO cells, hCB2, calcium fluorescence, read-out: hCB2 Ca EC50; for hCB2 Ca Span: percentage of the maximum CP55940 signal. The assay is classed as cell-based. The procedure: (§1) In vitro cannabinoid receptor activity assay. Chinese Hamster Ovary (CHO) cells stably expressing either human CB1 or CB2 cDNA and the promiscuous G-protein Gαq16 were transferred to each well of a black Costar 96-well optical bottom plate (Corning Corporation). Each plate was incubated at 37° C. for 24 hr to confluence. The culture media was removed from the plates and cells were subsequently loaded with a fluorescent calcium probe (Calcium 5 dye, Molecular Devices) at a final loading concentration of 2 μM in a HBSS-based buffer containing 20 mM HEPES, 1% BSA and 10 μM Probenecid (Sigma) in a total volume of 225 μl. Cells were incubated at 37° C. for 1 hr and then stimulated with various concentrations of a test agent using a FLIPR Tetra plate-reader, which automatically added the agonist at 10× concentration to each well after reading baseline values for ˜17 sec. Agonist-mediated change in fluorescence (488 nm excitation, 525 nm emission) was monitored in each well at 1 sec intervals for 60 sec and reported for each well. Data were analyzed using Prism software (GraphPad). Non-linear regression analysis was performed to fit data and obtain maximum response (Emax), effective concentration for 50% response (EC50), correlation coefficient (r2) and other parameters. All experiments were performed 3-6 times to ensure reproducibility.
(§2) Reference is made to the following reference, hereby incorporated by reference with regard to such assay, Seltzman, et al., Peripherally Selective Cannabinoid 1 Receptor (CB1R) Agonists for the Treatment of Neuropathic Pain, J Med Chem. 2016 Aug. 25; 59 (16):7525-43. doi: 10.1021/acs.jmedchem.6b00516. Epub 2016 Aug. 10.
Background: A change in cytosolic calcium serves as a functional read-out for many receptors and channels.

Another assay has as its target human CB1 (Homo sapiens (Human), UniProt P21554). In words: In vitro cannabinoid receptor activity assay (calcium mobilization, FLIPR) in CHO cells expressing human CB1 and Gαq16. The class given is cell-based. To be noted: for EC50: CHO cells, hCB1, calcium fluorescence, read-out: hCB1 Ca EC50; for hCB1 Ca Span: percentage of the maximum CP55940 signal. The procedure:
as §1, §2

Regarding `CCCCCn1nc(C(=O)NC(C)(C)c2cccc(NC(N)=O)c2)c2ccccc21` [Example 24, N-{2-[3-(Carbamoylamino)phenyl]propan-2-yl}-1-pentyl-1H-indazole-3-carboxamide], on human CB2, the EC50 (usually the midpoint of the concentration-response curve) came to 320 nM and the “hCB2 Ca Span” value stood at 47%. In addition, at human CB1, the EC50 amounted to 1300 nM and the “hCB1 Ca Span” value was determined as 52%.

For the compound `CC(C)(NC(=O)c1nn(Cc2ccc(F)cc2)c2ccccc12)c1cccc(NC(N)=O)c1` [Example 21, N-{2-[3-(Carbamoylamino)phenyl]propan-2-yl}-1-[(4-fluorophenyl)methyl]-1H-indazole-3-carboxamide], on human CB2, the EC50 came out at 160 nM and the “hCB2 Ca Span” value is 34%. Besides, at human CB1, the EC50 worked out at 1600 nM and the “hCB1 Ca Span” value is 34%.

Regarding `CCCCCn1nc(C(=O)NC(C)(C)c2cccc(NC(=O)NC)c2)c2ccccc21` [Example 27, N-(2-{3-[(Methylcarbamoyl)amino]phenyl}propan-2-yl)-1-pentyl-1H-indazole-3-carboxamide], at human CB2, the EC50 was 170 nM and the “hCB2 Ca Span” value was 55%. Besides, at human CB1, the EC50 came out at 100 nM and the “hCB1 Ca Span” value is listed as 100%.

With `CC(C)(NC(=O)c1cn(Cc2ccc(F)cc2)c2ccccc12)c1cccc(C(N)=O)c1` [Example 33, N-[2-(3-Carbamoylphenyl)propan-2-yl]-1-[(4-fluorophenyl)methyl]-1H-indole-3-carboxamide], at human CB2, the EC50 turned out to be 160 nM and the “hCB2 Ca Span” value was found to be 30%. On human CB1, the EC50 was determined as 870 nM and the “hCB1 Ca Span” value is 25%.

Take `CC(C)(NC(=O)c1nn(CC2CCOCC2)c2ccccc12)c1cccc(NC(N)=O)c1` [Example 23, N-{2-[3-(Carbamoylamino)phenyl]propan-2-yl}-1-(oxan-4-ylmethyl)-1H-indazole-3-carboxamide]: on human CB2, the EC50 was 94 nM and the “hCB2 Ca Span” value was 61%. Also, at human CB1, the EC50 is 1200 nM and the “hCB1 Ca Span” value was 91%.

For the compound `CC(C)(NC(=O)c1nn(CCCCCF)c2ccccc12)c1cccc(NC(N)=O)c1` [Example 25, N-{2-[3-(carbamoylamino)phenyl]propan-2-yl}-1-(5-fluoropentyl)-1H-indazole-3-carboxamide], at human CB2, the EC50 worked out at 170 nM and the “hCB2 Ca Span” value amounted to 51%. On human CB1, the EC50 worked out at 570 nM and the “hCB1 Ca Span” value stood at 65%.

As for `CC(C)(NC(=O)c1nn(CC2CCC(F)(F)CC2)c2ccccc12)c1cccc(NC(N)=O)c1` [Example 22, N-{2-[3-(Carbamoylamino)phenyl]propan-2-yl}-1-[(4,4-difluorocyclohexyl)methyl]-1H-indazole-3-carboxamide], at human CB2, the EC50 turned out to be 58 nM and the “hCB2 Ca Span” value is on record as 51%. On human CB1, the EC50 is 160 nM and the “hCB1 Ca Span” value was 89%.

As to `CC(C)(NC(=O)c1nn(CC2CCC(F)(F)CC2)c2ccccc12)c1cccc(C(N)=O)c1` [Example 15, N-[2-(3-Carbamoylphenyl)propan-2-yl]-1-[(4,4-difluorocyclohexyl)methyl]-1H-indazole-3-carboxamide], at human CB2, the half-maximal effective concentration (EC50) turned out to be 51 nM and the “hCB2 Ca Span” value is 38%. Also, at human CB1, the EC50 was 15 nM and the “hCB1 Ca Span” value was found to be 86%.

As to `CC(C)(NC(=O)c1nn(CCCCC(F)(F)F)c2ccccc12)c1cccc(C(N)=O)c1` [Example 19, N-[2-(3-Carbamoylphenyl)propan-2-yl]-1-(5,5,5-trifluoropentyl)-1H-indazole-3-carboxamide], on human CB2, the concentration for a half-maximal effect (EC50) turned out to be 480 nM and the “hCB2 Ca Span” value amounted to 39%. Further, at human CB1, the EC50 was 150 nM and the “hCB1 Ca Span” value is recorded as 64%.

On to `CNC(=O)Nc1cccc(C(C)(C)NC(=O)c2nn(CCCCCF)c3ccccc23)c1` [Example 28, 1-(5-Fluoropentyl)-N-(2-{3-[(methylcarbamoyl)amino]phenyl}propan-2-yl)-1H-indazole-3-carboxamide], for which, at human CB2, the EC50 was found to be 65 nM and the “hCB2 Ca Span” value is given as 61%. On human CB1, the EC50 stood at 30 nM and the “hCB1 Ca Span” value came to 100%.

Take `CC(C)(NC(=O)c1nn(CCCCCF)c2ccccc12)c1cccc(C(N)=O)c1` [Example 18, N-[2-(3-Carbamoylphenyl)propan-2-yl]-1-(5-fluoropentyl)-1H-indazole-3-carboxamide]: at human CB2, the EC50 was determined as 84 nM and the “hCB2 Ca Span” value is listed as 35%. Further, at human CB1, the EC50 was 78 nM and the “hCB1 Ca Span” value is 27%.

Take `CC(c1ccc(F)cc1)n1nc(C(=O)NC(C)(C)c2cccc(C(N)=O)c2)c2ccccc21` (stereo not drawn) [Example 14, N-[2-(3-Carbamoylphenyl)propan-2-yl]-1-[1-(4-fluorophenyl)ethyl]-1H-indazole-3-carboxamide]: the values for the EC50 at human CB2 and at human CB1 were over 10000 nM and 240 nM, respectively. The “hCB1 Ca Span” value at human CB1 came to 76%.

For `CC(C)(NC(=O)c1nn(Cc2ccc(F)cc2)c2ccccc12)C1CCN(C(N)=O)CC1` [Example 31, N-[2-(1-Carbamoylpiperidin-4-yl)propan-2-yl]-1-[(4-fluorophenyl)methyl]-1H-indazole-3-carboxamide], at human CB2, the EC50 is 140 nM and the “hCB2 Ca Span” value is on record as 57%. At human CB1, the concentration for a half-maximal effect (EC50) was 1000 nM and the “hCB1 Ca Span” value is reported as 64%.

With `CC(C)(NC(=O)c1nn(CC2CCOCC2)c2ccccc12)c1cccc(C(N)=O)c1` [Example 16, N-[2-(3-Carbamoylphenyl)propan-2-yl]-1-(oxan-4-ylmethyl)-1H-indazole-3-carboxamide], on human CB2, the EC50 turned out to be 63 nM and the “hCB2 Ca Span” value stood at 57%. On human CB1, the EC50 turned out to be 140 nM and the “hCB1 Ca Span” value turned out to be 92%.

Consider `CC(C)(NC(=O)c1nn(Cc2ccc(F)cc2)c2ccccc12)C1CCN(CC(N)=O)CC1` [Example 32, N-{2-[1-(Carbamoylmethyl)piperidin-4-yl]propan-2-yl}-1-[(4-fluorophenyl)methyl]-1H-indazole-3-carboxamide], for which, on human CB2, the EC50 was found to be 29 nM and the “hCB2 Ca Span” value was found to be 62%. For the same compound, on human CB1, the EC50 came out at 40 nM and the “hCB1 Ca Span” value came out at 110%.

Turning to `CNC(=O)Nc1cccc(C(C)(C)NC(=O)c2nn(CC3CCC(F)(F)CC3)c3ccccc23)c1` [Example 26, 1-[(4,4-Difluorocyclohexyl)methyl]-N-(2-{3-[(methylcarbamoyl)amino]phenyl}propan-2-yl)-1H-indazole-3-carboxamide], on human CB2, the concentration for a half-maximal effect (EC50) was 34 nM and the “hCB2 Ca Span” value is reported as 61%. Besides, on human CB1, the half-maximal effective concentration (EC50) is 16 nM and the “hCB1 Ca Span” value was determined as 110%.

On to `CC(C)(NC(=O)c1nn(Cc2ccc(F)cc2)c2ccccc12)C1CCCN(C(N)=O)C1` (stereo not drawn) [Example 29, N-[2-(1-Carbamoylpiperidin-3-yl)propan-2-yl]-1-[(4-fluorophenyl)methyl]-1H-indazole-3-carboxamide], for which, on human CB2, the EC50 amounted to 46 nM and the “hCB2 Ca Span” value was 36%. For the same compound, on human CB1, the EC50 is 140 nM and the “hCB1 Ca Span” value worked out at 75%.

Consider `CCCCCn1nc(C(=O)NC(C)(C)c2cccc(C(N)=O)c2)c2ccccc21` [Example 17, N-[2-(3-Carbamoylphenyl)propan-2-yl]-1-pentyl-1H-indazole-3-carboxamide], for which, on human CB2, the EC50 stood at 180 nM and the “hCB2 Ca Span” value is 43%. Also, on human CB1, the EC50 was determined as 220 nM and the “hCB1 Ca Span” value turned out to be 24%.

For `C[C@@H](NC(=O)c1nn(Cc2ccc(F)cc2)c2ccccc12)c1cccc(C(N)=O)c1` [Example 10, N-[(1R)-1-(3-Carbamoylphenyl)ethyl]-1-[(4-fluorophenyl)methyl]-1H-indazole-3-carboxamide], at human CB2, the EC50 came out at 660 nM and the “hCB2 Ca Span” value is 25%. On human CB1, the EC50 stood at 490 nM and the “hCB1 Ca Span” value worked out at 19%.
